Experimental data as given in US12479848B2, “Substituted fused heteroaromatic bicyclic compounds as kinase inhibitors and the use thereof” (IMPACT THERAPEUTICS (SHANGHAI), INC, priority 2019, dated 2025).

What was measured:
ATR/ATRIP enzyme = target: T1, ATR/ATRIP enzyme (Homo sapiens, UniProt Q13535); assay: ATR enzyme activity experiment (HTRF); format: biochemical
T1 construct: purchased Eurofins 14-953
Method: The test compound was diluted to a 4× final concentration with reaction buffer (25 mM HEPES (pH8.0), 10 mM MnCl2, 1% glycerol, 0.01% Brij-35, 5 mM DTT and 0.1% BSA). […] The mixture was centrifuged at 1000 rpm for 1 minute, and reacted at room temperature protected from light for 30 minutes. Then 5 μL of EDTA stop solution (250 mM) was added to stop the reaction. […] Data were analyzed using GraphPad Prism6.0, and fitted using the curve equation: Y=Bottom+(Top−Bottom)/(1+10^((Log IC50−X)*HillSlope)) and IC50 values were calculated.

[1] = tested on: human prostate cancer cell DU145; assay: MTT proliferation assay, DU145; format: cell-based
Method: The cells were digested by trypsinase and centrifuged at 800 rpm for 5 minutes, the supernatant was discarded, and the residual was resuspended with fresh medium (DMEM medium+10% FBS+non-essential amino acid) and counted. The cells were seeded into 96-well cell culture plate with a density of 2000 cells per well and incubated overnight in a 5% CO2 incubator at 37° C. […] 5 μL of each concentration was added to 120 μL of medium (25 times diluted) and mixed by shaking. The overnight cell plates were taken and the culture medium was removed, 195 μL of fresh medium was added to each well, and 5 μL of diluted medium containing the corresponding concentration of the test compound was added respectively (the final concentrations of compounds are shown in Table 3, the final concentration of DMSO is 1%), and the culture plate was then placed in a 5% CO2 incubator at 37° C. for 4 days. After removing the original solution, 100 μL of fresh serum-free DMEM medium containing MTT (0.5 mg/mL) was added to each well, the culture was continued. […] GraphPad Prism 6.0 was used to analyze the data. The inhibitory activity of compounds on cell proliferation was plotted based on cell viability and the logarithm of compound concentration. Cell viability %=(ODcompound−ODbackground)/(ODDMSO−ODbackground)×100.

[2] = tested on: human lung cancer cell NCI-H460; assay: MTT proliferation assay, NCI-H460; format: cell-based
Method: (§1) The cells were seeded into 96-well cell culture plate with a density of 2000/4000 cells per well and incubated overnight in a 5% CO2 incubator at 37° C. […] 5 L diluent of each concentration was added to 120 μL of medium (25 times diluted) and mixed by shaking. The overnight cell plates were taken and the culture medium was removed, 195 μL of fresh medium was added to each well, and 5 μL of diluted medium containing the corresponding concentration of the test compound was added respectively (the final concentration of DMSO is 1%), and the culture plate was then placed in a 5% CO2 incubator at 37° C. for 4 days. After removing the original solution, 100 μL of fresh serum-free DMEM medium containing MTT (0.5 mg/mL) was added to each well, the culture was continued. […] Cell viability (%)=(ODcompound−ODbackground)/(ODDMSO−ODbackground)×100. GraphPad Prism 6.0 was used to analyze the data. The inhibitory activity of compounds on cell proliferation was plotted based on cell viability and the logarithm of compound concentration.

[3] = tested on: human colon cancer cell LoVo; assay: MTT proliferation assay, LoVo; format: cell-based
Method: as §1, with “5 μL” for “5 L”, “viability (%)=(ODcompound−ODbackground)/(ODDMSO-ODbackground)×100.” for “viability (%)=(ODcompound−ODbackground)/(ODDMSO−ODbackground)×100.”

T1 sequence (Q13535 whole entry): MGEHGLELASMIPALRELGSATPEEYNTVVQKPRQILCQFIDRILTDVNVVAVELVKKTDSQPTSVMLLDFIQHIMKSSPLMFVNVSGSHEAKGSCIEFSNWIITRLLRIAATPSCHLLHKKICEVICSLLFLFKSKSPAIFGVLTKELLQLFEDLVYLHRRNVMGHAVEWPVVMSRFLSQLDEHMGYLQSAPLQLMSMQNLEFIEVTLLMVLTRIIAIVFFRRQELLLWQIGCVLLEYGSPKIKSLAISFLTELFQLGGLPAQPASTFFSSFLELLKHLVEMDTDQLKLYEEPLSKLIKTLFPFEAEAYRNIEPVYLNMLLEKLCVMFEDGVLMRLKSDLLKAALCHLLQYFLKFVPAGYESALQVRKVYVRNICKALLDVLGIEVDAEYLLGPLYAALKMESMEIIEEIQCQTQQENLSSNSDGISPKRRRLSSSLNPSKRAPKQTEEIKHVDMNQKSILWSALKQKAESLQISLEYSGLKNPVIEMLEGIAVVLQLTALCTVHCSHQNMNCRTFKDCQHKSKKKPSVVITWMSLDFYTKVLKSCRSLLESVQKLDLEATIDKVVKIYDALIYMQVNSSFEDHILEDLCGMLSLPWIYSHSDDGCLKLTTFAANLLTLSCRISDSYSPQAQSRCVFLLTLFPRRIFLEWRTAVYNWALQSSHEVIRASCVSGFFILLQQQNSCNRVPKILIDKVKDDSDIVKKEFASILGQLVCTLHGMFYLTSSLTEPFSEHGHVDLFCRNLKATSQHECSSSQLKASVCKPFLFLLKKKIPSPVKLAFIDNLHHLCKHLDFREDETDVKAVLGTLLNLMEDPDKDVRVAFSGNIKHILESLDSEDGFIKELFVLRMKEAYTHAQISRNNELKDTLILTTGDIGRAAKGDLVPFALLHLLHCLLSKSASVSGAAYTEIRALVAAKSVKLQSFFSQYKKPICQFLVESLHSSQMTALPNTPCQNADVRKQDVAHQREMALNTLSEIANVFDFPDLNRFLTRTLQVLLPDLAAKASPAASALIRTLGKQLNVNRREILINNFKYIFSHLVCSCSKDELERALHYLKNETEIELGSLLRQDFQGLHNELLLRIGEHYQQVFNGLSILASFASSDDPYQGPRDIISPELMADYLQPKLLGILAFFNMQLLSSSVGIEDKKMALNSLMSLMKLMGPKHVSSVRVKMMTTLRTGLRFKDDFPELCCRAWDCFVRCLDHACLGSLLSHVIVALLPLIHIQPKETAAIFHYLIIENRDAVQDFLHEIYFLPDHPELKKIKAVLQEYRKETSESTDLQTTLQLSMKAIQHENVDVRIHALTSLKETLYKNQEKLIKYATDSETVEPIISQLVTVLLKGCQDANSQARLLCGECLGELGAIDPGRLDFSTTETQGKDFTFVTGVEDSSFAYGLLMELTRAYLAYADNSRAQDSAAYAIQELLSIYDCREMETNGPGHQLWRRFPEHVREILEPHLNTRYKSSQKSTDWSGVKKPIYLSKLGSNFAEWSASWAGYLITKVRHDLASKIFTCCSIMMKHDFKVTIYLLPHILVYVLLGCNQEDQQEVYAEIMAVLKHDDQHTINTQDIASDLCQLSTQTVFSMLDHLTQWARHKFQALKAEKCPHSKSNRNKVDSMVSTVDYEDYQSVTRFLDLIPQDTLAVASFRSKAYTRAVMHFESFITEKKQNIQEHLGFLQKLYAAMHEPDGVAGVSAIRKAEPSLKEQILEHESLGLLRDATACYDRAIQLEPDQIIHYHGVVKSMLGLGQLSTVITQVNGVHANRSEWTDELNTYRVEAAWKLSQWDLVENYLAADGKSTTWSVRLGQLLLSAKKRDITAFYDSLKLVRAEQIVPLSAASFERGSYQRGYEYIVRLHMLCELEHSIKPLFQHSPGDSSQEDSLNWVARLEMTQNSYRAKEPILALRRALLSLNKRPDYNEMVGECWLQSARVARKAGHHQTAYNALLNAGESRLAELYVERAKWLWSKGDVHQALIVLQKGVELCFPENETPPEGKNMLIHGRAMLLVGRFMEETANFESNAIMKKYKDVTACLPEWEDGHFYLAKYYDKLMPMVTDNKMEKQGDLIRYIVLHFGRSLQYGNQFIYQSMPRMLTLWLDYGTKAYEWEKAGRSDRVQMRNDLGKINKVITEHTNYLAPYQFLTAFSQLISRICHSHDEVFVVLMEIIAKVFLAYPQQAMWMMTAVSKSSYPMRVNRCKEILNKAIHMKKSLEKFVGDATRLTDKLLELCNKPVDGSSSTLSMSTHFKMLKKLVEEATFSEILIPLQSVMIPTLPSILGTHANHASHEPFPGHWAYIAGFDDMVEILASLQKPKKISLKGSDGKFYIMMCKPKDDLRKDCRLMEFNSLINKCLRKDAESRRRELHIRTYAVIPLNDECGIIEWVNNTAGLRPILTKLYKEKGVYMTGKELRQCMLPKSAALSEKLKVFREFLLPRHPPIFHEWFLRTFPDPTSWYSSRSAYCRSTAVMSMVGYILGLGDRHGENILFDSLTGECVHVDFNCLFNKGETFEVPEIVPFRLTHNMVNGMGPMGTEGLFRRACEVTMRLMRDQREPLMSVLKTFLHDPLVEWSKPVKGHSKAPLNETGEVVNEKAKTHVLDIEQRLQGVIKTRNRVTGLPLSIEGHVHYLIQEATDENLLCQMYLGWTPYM
T1 sequence (Q8WXE1 whole entry partner): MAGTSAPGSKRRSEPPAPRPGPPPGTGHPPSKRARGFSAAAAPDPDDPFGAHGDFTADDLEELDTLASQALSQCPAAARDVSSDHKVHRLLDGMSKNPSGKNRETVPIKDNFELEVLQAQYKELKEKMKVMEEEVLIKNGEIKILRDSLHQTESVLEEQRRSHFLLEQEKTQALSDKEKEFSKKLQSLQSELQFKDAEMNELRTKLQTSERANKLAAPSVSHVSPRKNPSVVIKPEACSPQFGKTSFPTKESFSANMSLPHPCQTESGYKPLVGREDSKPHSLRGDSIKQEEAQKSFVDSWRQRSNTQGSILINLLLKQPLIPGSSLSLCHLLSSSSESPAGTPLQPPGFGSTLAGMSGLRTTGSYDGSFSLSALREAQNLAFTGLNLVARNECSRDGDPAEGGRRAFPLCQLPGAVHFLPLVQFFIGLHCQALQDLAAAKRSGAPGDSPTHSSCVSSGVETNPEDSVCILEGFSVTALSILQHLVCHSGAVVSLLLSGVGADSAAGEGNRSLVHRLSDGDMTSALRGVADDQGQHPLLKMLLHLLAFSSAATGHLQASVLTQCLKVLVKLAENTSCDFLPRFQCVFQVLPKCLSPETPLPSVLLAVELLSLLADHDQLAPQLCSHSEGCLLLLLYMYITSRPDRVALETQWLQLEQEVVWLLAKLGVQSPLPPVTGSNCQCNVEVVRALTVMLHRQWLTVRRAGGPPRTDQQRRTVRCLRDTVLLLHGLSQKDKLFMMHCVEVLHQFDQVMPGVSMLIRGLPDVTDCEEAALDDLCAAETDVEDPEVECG

inhibitory effect on ATR kinase activity (in words) (ATR/ATRIP enzyme; ATR enzyme activity experiment): good inhibitory effect | IC50 (ATR/ATRIP enzyme; read-out: IC50 (nM), inhibitory effects on ATR kinase activity, HTRF, p53 substrate, 30 minutes at room temperature): 4 nM | IC50 ([1]; Homo sapiens, DU-145, 96 h, 4 days, read-out: IC50 (nM), inhibition of proliferation of DU145): 131 nM | IC50 ([2]; Homo sapiens, NCI-H460, 96 h, 4 days, read-out: IC50 (nM), inhibition of proliferation of NCI-H460): 41.3 nM | IC50 ([3]; Homo sapiens, LoVo, 96 h, 4 days, read-out: IC50 (nM), inhibition of proliferation of LoVo): 53.5 nM
Structure (SMILES): C[C@@H]1COCCN1c1cc(-c2ccnn2C)c2cnc(-c3ccn[nH]3)n2n1 [Example 13, (R)-3-methyl-4-(4-(1-methyl-1H-pyrazol-5-yl)-7-(1H-pyrazol-5-yl)imidazo[1,5-b]pyridazin-2-yl)morpholine]
inhibitory effect on the proliferation of DU145 cell (in words) [1]: good inhibitory effect | inhibitory effect on the proliferation of NCI-H460 cell (in words) [2]: good inhibitory effect | inhibitory effect on the proliferation of LoVo cell (in words) [3]: good inhibitory effect
